Structures can show the parent of a compound that is named as a salt.
Key:
[1] = for Therapeutic range, absolute (LD 50 / ED 50%): LD 50 i.p. mice, ED 50% i.v. rats; for Therapeutic range (LD 50 / ED 50%), times greater than propranolol: comparison with propranolol; for Therapeutic range, relative (Propranolol = 1.00): relative to propranolol
Method: Isoproternol was administered before, and 5 minutes after, the intravenous administration of the test substances.

in vivo = details: mouse, ip
[2] = tested on: isoproterenol-induced tachycardia (β1); experiment: β1-sympatholytic action: inhibition of isoproterenol-induced tachycardia in pithed rats; format: in vivo, rats (Sprague-Dawley, Rattus norvegicus); details: for ED50: Rattus norvegicus, 5 min, isoproterenol 0.1 ug/kg i.v. before and 5 minutes after test substance, read-out: β1-sympatholytic action ED 50% (dose which inhibits the isoproterenol-induced tachycardia by 50%); for β1-sympatholytic activity, times greater than propranolol: comparison with propranolol
Method: The β-sympatholytic action was tested on rats, in comparison with the known β-sympatholytic agent propranolol (1-isopropylamino)-1-naphthyloxy-2-propanol.HC1).
^1 Inhibition of isoproterenolinduced tachycardia in pithed rats.
Intravenous administration
^2 Dose which inhibits the isoproterenolinduced tachycardia by 50%

CC(C)(C)NCC(O)COc1ccccc1-c1ccc[nH]1.O=C(O)/C=C/C(=O)O (stereo not shown) [Example II, 2-[2-(3-tert.-butylamino-2-hydroxypropoxy)-phenyl]-pyrrole fumarate]
Therapeutic range, absolute (LD 50 / ED 50%) [1]: 767 | Therapeutic range (LD 50 / ED 50%), times greater than propranolol [1]: 7 times | Therapeutic range, relative (Propranolol = 1.00) [1]: 6.91 | LD50 at 24 h (in vivo): 165 mg/kg | ED50 ([2]; intravenous, pithed rats): 0.00227 mg/kg | β1-sympatholytic activity, times greater than propranolol [2]: 5.6 times

CC(C)NCC(O)COc1cccc2ccccc12 (stereo not shown) [Propranolol, reference compound]
R.A. (relative activity, Propranolol = 1.00), β1-sympatholytic action ([2]; intravenous, pithed rats, relative to propranolol): 1.00

CC(C)NCC(O)COc1ccccc1-c1ccc[nH]1 (stereo not shown) [Example III, 2-[2-(3-isopropylamino-2-hydroxypropoxy)-phenyl]-pyrrole fumarate hemihydrate]
Therapeutic range, absolute (LD 50 / ED 50%) [1]: 452 | Therapeutic range (LD 50 / ED 50%), times greater than propranolol [1]: 4 times | Therapeutic range, relative (Propranolol = 1.00) [1]: 4.07 | LD50 at 24 h (in vivo): 97.2 mg/kg | ED50 ([2]; intravenous, pithed rats): 0.004 mg/kg | β1-sympatholytic activity, times greater than propranolol [2]: 3.2 times
